Key:
Assay type in all cases: binding
LC3A (C17) = LC3A (C17) (Homo sapiens, UniProt Q9H492); experiment: gel-based ABPP screen of cysteine-reactive covalent ligands against IA-alkyne labeling of LC3A; settings: for hit that displaced IA-alkyne probe labeling of C17 on LC3A (loss of in-gel fluorescence): pure LC3A protein
From the text: The critical part of this platform was to first develop a small-molecule recruiter for an autophagy adapter. We performed chemoproteomics-enabled covalent ligand discovery against the autophagy adapter LC3A, an important autophagy protein involved in substrate recognition, to discover an LC3A-recruiter, which can be combined with a protein targeting ligand via a linker to enable targeted protein autophagy of undruggable targets. […] While the NETS-ester probe appeared to label multiple sites on LC3A, the IA-alkyne probe apparently labeled one site, consistent with only one cysteine within LC3A-C17. Across the LC3 proteins, LC3A is the only protein that bears one cysteine. We next screened our cysteine-reactive covalent ligand library against iodoacetamide-alkyne (IA-alkyne) labeling of C17 on LC3A, and looked for hits that displaced probe-labeling resulting in loss of fluorescence by gel. Through this effort, we identified several cysteine-reactive acrylamide hits, including TRH 1-65, TRH 1-68, TRH 1-170, TRH 1-171, YP 1-44, CC 1-42, CC 1-48, EN2, EN7, EN35, and EN40 (FIGS. 5A-5D). These small-molecule recruiters or analogs of these chemical scaffolds that also bind to LC3A C17 can now be appended to linkers and protein targeting ligands to send specific protein cargo, and associated cellular contents, compartments, cells, or organelles off for targeted protein autophagy and lysososomal degradation. […] Examples of compounds that can be appended onto an autophagy adapter recruiter is JQ1, an inhibitor of bromodomain-containing BRD4 protein (an epigenetic regulator implicated in numerous human cancers). JQ1 can be appended to a linker, and an LC3A recruiter EN7 to degrade BRD4 in cells (FIGS. 7A-7C). Protein autophagy degrader can also be used to broadly recognize misfolded proteins and protein aggregates by conjugating thioflavin T, a general aggregate-protein recognizing compound, to a linker and EN7 to send these toxic protein aggregates and misfolded proteins to the autophagosome for lysosomal degradation (FIG. 8).

LC3A = LC3A (Homo sapiens, UniProt Q9H492); experiment: Gel-based ABPP analysis against LC3A; settings: IA-alkyne probe
Experimental: FIGS. 5A-5D. Covalent ligand screen against LC3A. Gel-based ABPP screen of cysteine-reactive ligand library against IA-alkyne labeling of LC3A. Cysteine-reactive covalent ligands were pre-incubated with LC3A pure protein (50 microM) for 30 min at room temperature prior to IA-alkyne labeling of the protein (10 microM) for 30 min at room temperature. Proteins were run on SDS/PAGE and in-gel fluorescence was analyzed.

p62/SQSTM1 protein = p62/SQSTM1 protein (Homo sapiens, UniProt Q13501); experiment: MS/MS of direct adduct on a peptide derived from p62/SQSTM1
Chain of p62/SQSTM1 protein (Q13501 whole entry): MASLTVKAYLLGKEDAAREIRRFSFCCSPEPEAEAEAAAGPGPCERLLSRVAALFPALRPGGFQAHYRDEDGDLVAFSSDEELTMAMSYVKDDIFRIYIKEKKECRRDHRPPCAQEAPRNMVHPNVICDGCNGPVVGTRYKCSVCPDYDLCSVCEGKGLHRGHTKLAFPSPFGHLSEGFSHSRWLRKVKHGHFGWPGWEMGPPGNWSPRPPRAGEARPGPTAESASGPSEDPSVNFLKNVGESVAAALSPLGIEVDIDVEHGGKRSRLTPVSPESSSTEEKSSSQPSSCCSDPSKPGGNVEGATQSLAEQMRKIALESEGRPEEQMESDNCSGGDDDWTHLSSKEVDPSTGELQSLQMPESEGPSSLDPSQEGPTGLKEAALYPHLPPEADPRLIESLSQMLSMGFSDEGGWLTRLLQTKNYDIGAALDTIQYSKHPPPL
From the text: FIG. 14. MS/MS data corresponding to the direct adduct of EN96 on a peptide derived from p62/SQSTM1.

SQSTM1 (p62) = SQSTM1 (p62) (Homo sapiens, UniProt Q13501); experiment: gel-based ABPP cysteine-reactive covalent ligand screen against SQSTM1 (p62); settings: FIGS. 10A-10B
Chain of SQSTM1 (p62) (Q13501 whole entry): as above
From the text: We have performed a cysteine-reactive covalent ligand screen against the autophagy adapter protein SQSTM1 (p62) using gel-based activity-based protein profiling (ABPP) approaches. We have identified several hit compounds that targeted a cysteine on SQSTM1 (FIGS. 10A-10B). […] To test whether we can use this potential SQSTM1 recruiter EN96 in a TADT platform, we synthesized BMF-1-64, which links EN96 to a BRD4 inhibitor JQ1, to determine whether we could degrade BRD4 in a proteasome-independent manner (FIG. 11).

Structure (SMILES)	hit that displaced IA-alkyne probe labeling of C17 on LC3A (loss of in-gel fluorescence) (LC3A (C17))	other results
C=CC(=O)NCc1ccc(C(=O)N2CCC(c3nc4ccccc4s3)CC2)cc1 [EN2]	hits	–
C=CC(=O)N=C1N=C2C=CC(I)=CN2Cc2ccccc21 [EN7]	hits	concentration down to which the compound binds LC3A (LC3A (C17); FIG. 6): ≥ 1 µM; targeting of C17 of LC3A, lowest concentration (LC3A): ≥ 1 µM
C=CC(=O)NC(c1ccco1)c1ccccc1OC (centres unmarked) [EN35]	hits	–
C=CC(=O)N1CCC(C)C(c2ccco2)C1 (centres unmarked) [EN40]	hits	–
C=CCOc1ccccc1CN(C(=O)CCl)c1ccc2c(c1)OCO2 [EN96]	–	cysteine of p62/SQSTM1 modified (p62/SQSTM1 protein): reacts with C113; potency ranking among covalent ligand hits against SQSTM1 (SQSTM1 (p62)): most potent covalent ligand against SQSTM1

Source: patent US11666661B2, “Methods and compounds for targeted autophagy” (THE REGENTS OF THE UNIVERSITY OF CALIFORNIA, priority 2018, dated 2023)
